Test [1] concerns inactivation of LXSN retroviral vector particles by human serum. Kind of test: Inactivation of LXSN retroviral vector particles in human serum in the presence of added sugars (Example 2). Conditions: 0.3125, 0.625, 1.25, 2.5 and 5 mg/ml; 40% human serum; relative to samples without added sugars. The class given is cell-based. As to the method:
(§1) RVVP samples were assayed for titer of infectious RVVPs on NIH/3T3 cells (ATCC designation CCL 163). 2.5×10^4 cells were plated per well in 6-well plates with 2 ml of DMEM containing 10% fetal bovine serum (D10). The medium in each well was replaced with 2 ml of D10 containing 8 μg/ml of polybrene and retroviral particles were added. Ten-fold dilutions were made from the original well and plates were incubated for 24 h at 37° C. Medium was removed and 2 ml of D10 containing 500 μg/ml of G418 (active weight) was added. The cells were maintained under selection for 7 days with 2 changes of medium during this period. Finally, medium was removed and colonies were stained with methylene blue saturated methanol for 15 min. followed by a brief rinse in water. Wells containing less than 100 colonies were counted to determine titers.
LXSN retroviral vector particles were prepared as described above. Aliquots of a 40% solution of human serum in HBSS were then incubated for 15 minutes at room temperature with added sugars. The sugars added were D-glucose (Mallinckrodt, Paris, Ky.) and galactose alpha-1,3 galactose (Dextra Laboratories, Reading, England), and were added at concentrations of 0.3125, 0.625, 1.25, 2.5, and 5 mg/ml. […] The results of these titrations were calculated as fold increase in retroviral vector particle survival relative to the control samples, and are set forth in FIG. 2.

The test system of test [2] is complement-mediated inactivation of amphotropic retroviral particles in human serum. In words: Retrovirus killing assay in human serum preincubated with soluble carbohydrates. The class given is cell-based. Conditions: for effect on complement-mediated retrovirus inactivation / retrovirus survival: 5 mg/ml carbohydrate preincubated with 40% human serum, titered on NIH/3T3 cells. As for the experimental part:
as §1
Retroviral vector particles, including those from PA317 or PA317/H-transferase cells, (approximately 500 CFU) were incubated for 30 min. at 37° C. in 100 μl of 40% primate sera diluted in Hank's balanced salt solution (HBSS) and subsequently titered on NIH/3T3 cells to assess retrovirus survival as described above. The different primate sera included human (Diamedix, Cambridge, Mass.), chimpanzee (Southwest Foundation for Research, San Antonio, Tex.), baboon, squirrel monkey, owl monkey and tamarin (all from the New England Regional Primate Research Center, Southborough, Mass.). Data were calculated as percent retrovirus survival in the various sera relative to the number of input CFU (determined by incubation of virus in 40% heat inactivated human serum). […] In the anti-αgalactosyl antibody depletion experiments, retroviral particles were preincubated with either anti-αgalactosyl antibody (90 μg/ml) or buffer alone (PBS; BioWhittaker, Walkersville, Md.) for 30 min. at 37° C. before the addition of either 40% human serum, 40% human serum depleted of anti-αgalactosyl antibodies or 40% squirrel monkey serum for an additional 30 min. incubation. Retrovirus survival was then assessed as described above.

A further test has as its system Golgi α-mannosidase I. As to conditions: addition of inhibitor; cited from earlier work.
In another test the target is T1, Golgi α-mannosidase II (Homo sapiens, UniProt Q16706).
T1 sequence (Q16706 1-1144): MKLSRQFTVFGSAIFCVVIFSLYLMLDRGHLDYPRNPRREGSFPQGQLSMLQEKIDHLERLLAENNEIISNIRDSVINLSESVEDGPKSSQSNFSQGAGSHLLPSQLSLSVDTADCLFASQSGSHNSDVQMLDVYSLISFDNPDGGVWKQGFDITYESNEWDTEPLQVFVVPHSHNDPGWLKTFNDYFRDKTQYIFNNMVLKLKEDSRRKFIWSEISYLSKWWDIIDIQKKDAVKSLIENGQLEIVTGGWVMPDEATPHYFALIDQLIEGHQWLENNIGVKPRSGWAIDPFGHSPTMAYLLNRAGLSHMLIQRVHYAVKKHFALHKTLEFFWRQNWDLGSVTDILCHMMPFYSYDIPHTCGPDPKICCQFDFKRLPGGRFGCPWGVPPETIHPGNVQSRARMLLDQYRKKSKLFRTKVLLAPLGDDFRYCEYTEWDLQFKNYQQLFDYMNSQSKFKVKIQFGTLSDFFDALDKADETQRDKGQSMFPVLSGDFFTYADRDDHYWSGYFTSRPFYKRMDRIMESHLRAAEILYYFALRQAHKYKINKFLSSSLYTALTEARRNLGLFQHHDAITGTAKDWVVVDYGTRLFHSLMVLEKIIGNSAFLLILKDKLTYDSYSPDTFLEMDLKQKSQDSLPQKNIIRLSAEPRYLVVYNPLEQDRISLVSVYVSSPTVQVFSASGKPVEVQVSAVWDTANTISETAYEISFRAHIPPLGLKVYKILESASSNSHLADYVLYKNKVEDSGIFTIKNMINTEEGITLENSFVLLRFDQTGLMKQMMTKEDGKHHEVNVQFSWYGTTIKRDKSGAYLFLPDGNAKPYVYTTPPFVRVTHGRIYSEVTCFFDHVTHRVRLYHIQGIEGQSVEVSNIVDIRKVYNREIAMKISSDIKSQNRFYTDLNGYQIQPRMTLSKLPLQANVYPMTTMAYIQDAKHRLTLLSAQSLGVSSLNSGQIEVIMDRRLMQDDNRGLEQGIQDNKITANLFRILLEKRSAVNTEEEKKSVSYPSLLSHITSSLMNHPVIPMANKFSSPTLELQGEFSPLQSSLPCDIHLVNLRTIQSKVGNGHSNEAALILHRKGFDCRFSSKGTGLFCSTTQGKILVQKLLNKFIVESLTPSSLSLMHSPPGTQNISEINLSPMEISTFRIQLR
As to conditions: addition of inhibitor; cited from earlier work.

Another test addresses T2, α-glucosidase I (Homo sapiens, UniProt Q13724).
T2 sequence (Q13724 1-837): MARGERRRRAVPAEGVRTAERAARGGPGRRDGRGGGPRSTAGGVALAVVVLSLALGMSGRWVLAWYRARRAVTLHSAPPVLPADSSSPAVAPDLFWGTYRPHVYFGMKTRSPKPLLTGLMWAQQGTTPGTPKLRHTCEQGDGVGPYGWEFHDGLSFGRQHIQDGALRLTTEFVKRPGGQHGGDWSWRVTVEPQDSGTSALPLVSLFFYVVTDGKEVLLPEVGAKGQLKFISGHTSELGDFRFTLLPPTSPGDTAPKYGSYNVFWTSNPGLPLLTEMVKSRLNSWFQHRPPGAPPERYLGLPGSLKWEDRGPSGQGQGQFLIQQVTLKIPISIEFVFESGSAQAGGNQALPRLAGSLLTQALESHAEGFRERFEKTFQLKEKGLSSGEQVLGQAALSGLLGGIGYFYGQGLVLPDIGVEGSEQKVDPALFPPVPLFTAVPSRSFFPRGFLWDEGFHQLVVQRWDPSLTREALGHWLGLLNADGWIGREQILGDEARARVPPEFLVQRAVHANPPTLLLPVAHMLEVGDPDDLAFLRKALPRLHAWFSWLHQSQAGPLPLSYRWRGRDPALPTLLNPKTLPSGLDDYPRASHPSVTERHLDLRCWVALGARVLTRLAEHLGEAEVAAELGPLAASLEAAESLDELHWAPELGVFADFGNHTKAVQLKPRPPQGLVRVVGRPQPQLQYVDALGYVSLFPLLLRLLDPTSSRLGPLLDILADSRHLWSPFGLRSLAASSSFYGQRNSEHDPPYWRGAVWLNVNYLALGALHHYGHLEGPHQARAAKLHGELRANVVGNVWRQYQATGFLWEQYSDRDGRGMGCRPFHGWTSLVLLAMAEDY
Conditions: addition of inhibitor; cited from earlier work.

Structures are written as SMILES.

The values below come from US20020045247A1, “METHODS FOR THE PREPARATION OF RETROVIRAL PARTICLES AND CELL LINES DEFICIENT IN THE ALPHA-GALACTOSYL EPITOPE” (priority 1997, published 2002).

Consider `O=C[C@H](O)[C@@H](O)[C@H](O)[C@H](O)CO` [D(+) glucose], for which the “reduction of inactivation of retroviral vector particles by human serum” value in test [1] is on record as “not”. For the same compound, the “effect on complement-mediated retrovirus inactivation / retrovirus survival” value in test [2] is on record as “did not affect retrovirus survival”. For the compound `OC[C@H]1O[C@H](O[C@H]2[C@@H](O)[C@@H](CO)OC(O)[C@@H]2O)[C@H](O)[C@@H](O)[C@H]1O` (stereo partly drawn) [Galα1-3Gal, galactose α1-3 galactose], the “reduction of inactivation of retroviral vector particles by human serum” value in test [1] was “substantially reduces the inactivation of the retroviral vector particles”. In test [2], the “effect on complement-mediated retrovirus inactivation / retrovirus survival” value is given as “completely blocked complement-mediated virolysis”. Further, in test [2] (various concentrations, 40% human serum), the “inhibition of retrovirus inactivation, dose dependence” value is on record as “inhibited retrovirus inactivation in a dose-dependent manner”. For `OC[C@H]1NC[C@@H](O)[C@@H](O)[C@@H]1O` [1-deoxymannojirimycin], the “activity of Golgi α-mannosidase I” value with Golgi α-mannosidase I is reported as “greatly reduced”. As to `O[C@H]1[C@H]2[C@H](O)CCCN2C[C@H]1O` [swainsonine], on Golgi α-mannosidase II, the “activity of Golgi α-mannosidase II” value is on record as “greatly reduced”.

Consider `O[C@H]1[C@H](O)[C@@H](O)CN2CC[C@H](O)[C@H]12` [castanospermine], for which the “activity of α-glucosidase I” value on α-glucosidase I was “greatly reduced”. For the compound `OC[C@H]1O[C@@](CO)(O[C@H]2O[C@H](CO)[C@@H](O)[C@H](O)[C@H]2O)[C@@H](O)[C@@H]1O` [sucrose], the “effect on complement-mediated retrovirus inactivation / retrovirus survival” value in test [2] is “did not affect retrovirus survival”. Same read-out and setting: to `C[C@@H]1O[C@@H](O)[C@@H](O)[C@H](O)[C@@H]1O` [α-L(−) fucose] belongs “did not affect retrovirus survival”. The term inhibition denotes how much of the control response was suppressed. A lower inhibition goes with a weak effect. In the case of `O=C[C@H](O)[C@@H](O)[C@@H](O)[C@H](O)CO` [D(+) galactose], in test [2] (5 mg/ml, 40% human serum), the inhibition at 5000 µg/mL was approximately 25%. Regarding `CN1C[C@H](O)[C@@H](O)[C@H](O)[C@H]1CO` [N-methyldeoxynojirimycin], the “activity of α-glucosidase I” value at α-glucosidase I was “greatly reduced”.
